Test results from US4336389A, “2-Substituted-4-aryl-5-thiazolecarboxylic acids and their derivatives as safening agents” (Monsanto Company, priority 1978, dated 1982).
Structures can show the parent of a compound that is named as a salt.

How the values were obtained:
Type in all cases: in vivo
rice [1] = assay: Inhibition of rice, safening agent and butachlor applied to soil surface, flooded pots (Example 18, Table IV); settings: ~21 days, mean of two replicates
Experimental: (§1) 5.08 cm. of a good grade of top soil is placed in a 7.62 cm. deep plastic pot. A predetermined number of barnyard grass seeds are applied to the soil surface. A measured quantity of the safening agent and butachlor dispersed or dissolved in a suitable carrier is applied to the soil surface. Pre-soaked rice is seeded into the pots that were previously flooded with water. The water level is lowered below the soil surface for one week. The pots are flooded just above the soil surface for the duration of the test. The plants are observed at the end of approximately 21 days and the results in terms of percent inhibition recorded. For each test, pots are prepared containing soil treated only with butachlor. For each test, pots are prepared containing soil treated only with the safening agent. Pots are also prepared with untreated soil.

Barnyard Grass [2] = assay: Inhibition of barnyard grass, safening agent and butachlor applied to soil surface, flooded pots (Example 18, Table IV); settings: ~21 days, mean of two replicates
Experimental: as §1

rice [3] = assay: Safening effect against butachlor injury to rice, safening agent and herbicide incorporated in soil (Example 15, Table I); design: key: herbicide-alone + safener-alone effect (max 100) minus combined effect; settings: safening agent 8.96 kg/h, ~21 days
Experimental: (§2) A good grade of top soil is placed in a container and compacted to a depth of approximately 1.27 cm. from the top of said container. A predetermined number of rice seeds to be tested are placed on top of the soil. A quantity of soil sufficient to substantially fill the container is measured and placed in a second container. A measured quantity of the safening agent dispersed or dissolved in a suitable carrier is applied to the soil in the second container. A measured quantity of butachlor dispersed or dissolved in a suitable carrier is then sprayed on the soil already treated with the safening agent. The soil containing the safening agent and herbicide is thoroughly mixed. This mixing is sometimes referred to as incorporation of the herbicide and safening agent into the soil. The mixing or incorporation provides a substantially uniform distribution of the safening agent and herbicide throughout the soil. The seeds are covered with the soil containing the safening agent and herbicide and the pans are leveled. The pans are then placed on a sand bench in the greenhouse and watered from below as needed. The plants are observed at the end of approximately 21 days and the results in terms of percent inhibition of each seed lot are recorded. For each test series a pan of plants is also prepared containing no herbicide and no safening agent as a control. Additionally, for each test, a pan of plants is prepared with soil covering the seed containing no herbicide and only the measured amount of safening agent being incorporated into the soil covering the seeds to ascertain any herbicidal effect of the safening agent alone. For each series of tests the herbicidal effect of the herbicide is observed from pans of plants treated with the same quantity of herbicide alone. The "safening effect" is determined by adding the hericidal effect of the herbicide when applied alone to the herbicidal effect of the safening agent when applied alone (in no instance, however, will this sum be greater than 100) and substracting from that the herbicidal effect obtained when the herbicide and safening agent are incorporated into the soil as discussed above.
Table I summarizes the results obtained when the compounds of the invention were tested in accordance with the procedure of Example 15.

rice [4] = assay: Safening effect against butachlor injury to pre-soaked rice, soil surface application, flooded pots (Example 16, Table II); design: key: herbicide injury alone + safener injury alone (max 100) minus combined injury; settings: safening agent 0.56 kg/h, ~21 days, mean of two replicates
Experimental: as §2
A good grade of top soil is placed in a plastic pot. A measured quantity of the safening agent dispersed or dissolved in a suitable carrier is sprayed on the soil surface. A measured quantity of butachlor herbicide dissolved in a solvent is sprayed on the soil surface. Presoaked rice is seeded into the pots that were previously flooded with water and the water level lowered below the soil surface for one week. The pots are flooded at least up to the soil surface for the duration of the test. The plants are observed at the end of approximately 21 days and the results in terms of the percent inhibition of rice is recorded. As in Example 15, for each test pots are prepared containing soil treated only with butachlor. For each test, pots are also prepared containing soil treated only with the safening agent. Pots are also prepared in which the soil is not treated with either the herbicide or the safening agent. The safening effect is determined in accordance with Example 15.
Table II summarizes the results obtained when the compounds of the invention were tested in accordance with the procedure of Example 16.

rice [5] = assay: Inhibition of rice by butachlor and safening agent sprayed on soil surface, flooded pots (Example 17, Table III); settings: ~21 days, mean of two replicates
Experimental: as §1, with “agent” for “agent and butachlor”, “is sprayed on the soil surface. A measured quantity of butachlor herbicide dissolved in a solvent is sprayed on” for “is applied to”, “one week to allow barnyard grass to emerge.” for “one week.”, “prepared containing” for “prepared with”

Barnyard Grass [6] = assay: Inhibition of barnyard grass by butachlor and safening agent sprayed on soil surface, flooded pots (Example 17, Table III); settings: ~21 days, mean of two replicates
Experimental: as §1, with “agent” for “agent and butachlor”, “is sprayed on the soil surface. A measured quantity of butachlor herbicide dissolved in a solvent is sprayed on” for “is applied to”, “one week to allow barnyard grass to emerge.” for “one week.”, “prepared containing” for “prepared with”

[7] = safening agent 1.12 kg/h + butachlor 0.07 kg/h
[8] = safening agent 1.12 kg/h + butachlor 0.28 kg/h
[9] = safening agent 1.12 kg/h + butachlor 1.12 kg/h
[10] = safening agent 0.07 kg/h + butachlor 0.07 kg/h
[11] = safening agent 0.07 kg/h + butachlor 0.28 kg/h
[12] = safening agent 0.07 kg/h + butachlor 1.12 kg/h
[13] = safening agent 0.28 kg/h + butachlor 0.07 kg/h
[14] = safening agent 0.28 kg/h + butachlor 0.28 kg/h
[15] = safening agent 0.28 kg/h + butachlor 1.12 kg/h

With `CCOC(=O)c1sc(Oc2ccc(Cl)cc2Cl)nc1-c1ccccc1` [Ethyl 2-(2',4'-dichlorophenoxy)-4-phenyl-5-thiazolecarboxylate] the “% Inhibition, Rice” value (rice [1]; [7]) was 15%, the “% Inhibition, Rice” value (rice [1]; [8]) was 88% and the “% Inhibition, Rice” value (rice [1]; [9]) was 99%. The “% Inhibition, Rice” value (rice [1]; safening agent alone 1.12 kg/h) was 0%, the “% Inhibition, Barnyard Grass” value (Barnyard Grass [2]; [7]) was 83% and the “% Inhibition, Barnyard Grass” value (Barnyard Grass [2]; [8]) was 98%. For the same compound, the “% Inhibition, Barnyard Grass” value (Barnyard Grass [2]; [9]) was 100% and the “% Inhibition, Barnyard Grass” value (Barnyard Grass [2]; safening agent alone 1.12 kg/h) was 0%.

For `CCOC(=O)c1sc(Cl)nc1-c1cccc(C(F)(F)F)c1` [Example 2, Ethyl 2-Chloro-4-m-Trifluoromethylphenyl-5-thiazolecarboxylate], the “Safening Effect” value (rice [3]; butachlor 4.48 kg/h) was 50, the “Safening Effect” value (rice [4]; butachlor 0.07 kg/h) was 68 and the “Safening Effect” value (rice [4]; butachlor 0.28 kg/h) was 26. The “Safening Effect” value (rice [4]; butachlor 1.12 kg/h) was “* (Safening effect between 0 and 20)”.

In the case of `CCOC(=O)c1sc(Cl)nc1-c1ccc(F)cc1` [Example 3, Ethyl 2-Chloro-4-(p-Fluorophenyl)-5-Thiazolecarboxylate], the “Safening Effect” value (rice [3]; butachlor 6.72 kg/h) was 65, the “Safening Effect” value (rice [4]; butachlor 0.07 kg/h) was 30 and the “Safening Effect” value (rice [4]; butachlor 0.28 kg/h) was 73. For the same compound, the “Safening Effect” value (rice [4]; butachlor 1.12 kg/h) was 62, the “Inhibition, Rice” value (rice [5]; [10]) was 0% and the “Inhibition, Rice” value (rice [5]; [11]) was 5%. For the same compound, the “Inhibition, Rice” value (rice [5]; [12]) was 70%, the “Inhibition, Rice” value (rice [5]; [13]) was 0% and the “Inhibition, Rice” value (rice [5]; [14]) was 5%. The “Inhibition, Rice” value (rice [5]; [15]) was 58%, the “Inhibition, Rice” value (rice [5]; [7]) was 0% and the “Inhibition, Rice” value (rice [5]; [8]) was 0%. For the same compound, the “Inhibition, Rice” value (rice [5]; [9]) was 43%, the “Inhibition, Rice” value (rice [5]; safening agent alone 0.07 kg/h) was 0% and the “Inhibition, Rice” value (rice [5]; safening agent alone 0.28 kg/h) was 0%. For the same compound, the “Inhibition, Rice” value (rice [5]; safening agent alone 1.12 kg/h) was 0%, the “Inhibition, Barnyard Grass” value (Barnyard Grass [6]; [10]) was 97% and the “Inhibition, Barnyard Grass” value (Barnyard Grass [6]; [11]) was 99%. The “Inhibition, Barnyard Grass” value (Barnyard Grass [6]; [12]) was 100%, the “Inhibition, Barnyard Grass” value (Barnyard Grass [6]; [13]) was 92% and the “Inhibition, Barnyard Grass” value (Barnyard Grass [6]; [14]) was 100%. For the same compound, the “Inhibition, Barnyard Grass” value (Barnyard Grass [6]; [15]) was 100%, the “Inhibition, Barnyard Grass” value (Barnyard Grass [6]; [7]) was 92% and the “Inhibition, Barnyard Grass” value (Barnyard Grass [6]; [8]) was 100%. The “Inhibition, Barnyard Grass” value (Barnyard Grass [6]; [9]) was 100%, the “Inhibition, Barnyard Grass” value (Barnyard Grass [6]; safening agent alone 0.07 kg/h) was 0% and the “Inhibition, Barnyard Grass” value (Barnyard Grass [6]; safening agent alone 0.28 kg/h) was 0%. The “Inhibition, Barnyard Grass” value (Barnyard Grass [6]; safening agent alone 1.12 kg/h) was 0%.

For `CCOC(=O)c1sc(Cl)nc1-c1ccccc1Cl` [Example 5, Ethyl 2-Chloro-4-(o-Chlorophenyl)-5-Thiazolecarboxylate], the “Safening Effect” value (rice [3]; butachlor 6.72 kg/h) was 65.

For `CCOC(=O)c1sc(Cl)nc1-c1cccc(C)c1` [Example 6, Ethyl 2-Chloro-4-(m-Tolyl)-5-Thiazolecarboxylate], the “Safening Effect” value (rice [3]; butachlor 6.72 kg/h) was 65.

`CCOC(=O)c1sc(Cl)nc1-c1ccc([N+](=O)[O-])cc1` [Example 7, Ethyl 2-Chloro-4-(p-Nitrophenyl)-5Thiazolecarboxylate] was tested, and the “Safening Effect” value (rice [3]; butachlor 4.48 kg/h) was 25, the “Safening Effect” value (rice [4]; butachlor 0.07 kg/h) was “* (Safening effect between 0 and 20)” and the “Safening Effect” value (rice [4]; butachlor 0.28 kg/h) was 38. For the same compound, the “Safening Effect” value (rice [4]; butachlor 1.12 kg/h) was “* (Safening effect between 0 and 20)”.

For `CCOC(=O)c1sc(OCC)nc1-c1ccccc1` [Example 8, Ethyl 2-Ethoxy-4-Phenyl-5-Thiazolecarboxylate], the “Safening Effect” value (rice [3]; butachlor 4.48 kg/h) was 75, the “% Inhibition, Rice” value (rice [1]; [7]) was 30% and the “% Inhibition, Rice” value (rice [1]; [8]) was 88%. For the same compound, the “% Inhibition, Rice” value (rice [1]; [9]) was 95%, the “% Inhibition, Rice” value (rice [1]; safening agent alone 1.12 kg/h) was 0% and the “% Inhibition, Barnyard Grass” value (Barnyard Grass [2]; [7]) was 100%. The “% Inhibition, Barnyard Grass” value (Barnyard Grass [2]; [8]) was 100%, the “% Inhibition, Barnyard Grass” value (Barnyard Grass [2]; [9]) was 100% and the “% Inhibition, Barnyard Grass” value (Barnyard Grass [2]; safening agent alone 1.12 kg/h) was 0%.

`CCOC(=O)c1sc(OCC)nc1-c1cccc(C(F)(F)F)c1` [Example 9, Ethyl 2-Ethoxy-4-(m-Trifluoromethylphenyl)-5-Thiazolecarboxylate] was tested, and the “Safening Effect” value (rice [3]; butachlor 4.48 kg/h) was 20.

For `CCOC(=O)c1sc(Oc2ccc(Cl)cc2Cl)nc1-c1cccc(C(F)(F)F)c1` [Example 10, Ethyl 2-(2',4'-Dichlorophenoxy)-4-(m-Trifluoromethylphenyl)-5-Thiazolecarboxylate], the “Safening Effect” value (rice [3]; butachlor 4.48 kg/h) was 43, the “Safening Effect” value (rice [4]; butachlor 0.07 kg/h) was “* (Safening effect between 0 and 20)” and the “Safening Effect” value (rice [4]; butachlor 0.28 kg/h) was “* (Safening effect between 0 and 20)”. The “Safening Effect” value (rice [4]; butachlor 1.12 kg/h) was “* (Safening effect between 0 and 20)”.

In the case of `O=C(O)c1sc(Cl)nc1-c1ccccc1` [Example 11, 2-Chloro-4-Phenyl-5-Thiazolecarboxylic Acid], the “Safening Effect” value (rice [3]; butachlor 4.48 kg/h) was 50, the “Safening Effect” value (rice [4]; butachlor 0.07 kg/h) was “* (Safening effect between 0 and 20)” and the “Safening Effect” value (rice [4]; butachlor 0.28 kg/h) was 63. The “Safening Effect” value (rice [4]; butachlor 1.12 kg/h) was 45.

In the case of `O=C(Cl)c1sc(Cl)nc1-c1ccccc1` [Example 12, 2-Chloro-4-Phenyl-5-Thiazolecarbonyl Chloride], the “Safening Effect” value (rice [3]; butachlor 4.48 kg/h) was 50, the “Safening Effect” value (rice [4]; butachlor 0.07 kg/h) was 35 and the “Safening Effect” value (rice [4]; butachlor 0.28 kg/h) was 80. The “Safening Effect” value (rice [4]; butachlor 1.12 kg/h) was 62.

For `COC(=O)c1sc(Cl)nc1-c1ccccc1` [Example 13, Methyl 2-Chloro-4-Phenyl-5-Thiazolecarboxylate], the “Safening Effect” value (rice [3]; butachlor 4.48 kg/h) was 30.

With `CCCOC(=O)c1sc(Cl)nc1-c1ccccc1` [Example 14, n-Propyl 2-Chloro-4-Phenyl-5-Thiazolecarboxylate] the “Safening Effect” value (rice [3]; butachlor 4.48 kg/h) was 20.

With `O=C(O)c1sc(Cl)nc1-c1ccccc1` [triethanolamine salt of 2-chloro-4-phenyl-5-thiazolecarboxylic acid] the “% Inhibition, Rice” value (rice [1]; [7]) was 0%, the “% Inhibition, Rice” value (rice [1]; [8]) was 20% and the “% Inhibition, Rice” value (rice [1]; [9]) was 60%. The “% Inhibition, Rice” value (rice [1]; safening agent alone 1.12 kg/h) was 0%, the “% Inhibition, Barnyard Grass” value (Barnyard Grass [2]; [7]) was 88% and the “% Inhibition, Barnyard Grass” value (Barnyard Grass [2]; [8]) was 99%. The “% Inhibition, Barnyard Grass” value (Barnyard Grass [2]; [9]) was 100% and the “% Inhibition, Barnyard Grass” value (Barnyard Grass [2]; safening agent alone 1.12 kg/h) was 0%.
